Converted amounts (≈) assume the structure as drawn. The source made the active and inactive calls. The rule behind the calls is not given here.
Assays:
Bacillus spizizenii [1] = experiment: Antimicrobial activity against Bacillus subtilis subsp. spizizenii ATCC 6633 after 24 hr by two-fold serial dilution method; format: functional; details: ATCC 6633, 24 h
Proteus vulgaris [2] = experiment: Microbiostatic activity against Proteus vulgaris ATCC 6896 after 24 hr
Pseudomonas aeruginosa [3] = experiment: Microbiostatic activity against Pseudomonas aeruginosa ATCC 27853 after 24 hr
Staphylococcus aureus [4] = experiment: Microbiostatic activity against Staphylococcus aureus ATCC 25923 after 24 hr
Pseudomonas aeruginosa [5] = experiment: Antimicrobial activity against Pseudomonas aeruginosa ATCC 27853 after 24 hr by two-fold serial dilution method; format: functional; details: ATCC 27853, 24 h
Escherichia coli [6] = experiment: Microbiostatic activity against Escherichia coli ATCC 25922 after […]; format: functional, organism-based
Bacillus spizizenii [7] = experiment: Microbiostatic activity against Bacillus subtilis subsp. spizizenii ATCC 6633 after 24 hr
Candida albicans [8] = experiment: Microbiostatic activity against Candida albicans ATCC 76615; format: functional, organism-based
Proteus vulgaris [9] = experiment: Antimicrobial activity against Proteus vulgaris ATCC 6896 after 24 hr by two-fold serial dilution method; format: functional; details: ATCC 6896, 24 h
Escherichia coli [10] = experiment: Antimicrobial activity against Escherichia coli ATCC 25922 after 24 hr by two-fold serial dilution method; format: functional; details: ATCC 25922, 24 h
Staphylococcus aureus [11] = experiment: Antimicrobial activity against Staphylococcus aureus ATCC 25923 after 24 hr by two-fold serial dilution method; format: functional; details: ATCC 25923, 24 h
Aspergillus flavus [12] = experiment: Microbiostatic activity against Aspergillus flavus ATCC 10124; format: functional, organism-based
Candida albicans [13] = experiment: Antimicrobial activity against Candida albicans ATCC 76615 after 48 hr by two-fold serial dilution method; format: functional; details: ATCC 76615, 48 h
Aspergillus flavus [14] = experiment: Antimicrobial activity against Aspergillus flavus ATCC 10124 after 48 hr by two-foldserial dilution method; format: functional; details: ATCC 10124, 48 h

SMILES | MIC (Bacillus spizizenii [1]) [mg/L] | Activity (Proteus vulgaris [2]) | Activity (Pseudomonas aeruginosa [3]) | Activity (Staphylococcus aureus [4]) | MIC (Pseudomonas aeruginosa [5]) [mg/L] | Activity (Escherichia coli [6]) | Activity (Bacillus spizizenii [7]) | Activity (Candida albicans [8]) | MIC (Proteus vulgaris [9]) [mg/L] | MIC (Escherichia coli [10]) [mg/L] | MIC (Staphylococcus aureus [11]) [mg/L] | Activity (Aspergillus flavus [12]) | MIC (Candida albicans [13]) [mg/L] | MIC (Aspergillus flavus [14]) [mg/L]
O=C1COc2cc(F)ccc2N1CC1CCCO1 (centres undefined) | 32 (≈ 127 µM) | Active | Active | Active | 128 (≈ 509 µM) | Active | Active | Active | 16 (≈ 63.7 µM) | 32 (≈ 127 µM) | 32 (≈ 127 µM) | Active | 256 (≈ 1020 µM) | –
O=C1COc2cc(Cl)ccc2N1CC1CCCO1 (centres undefined) | 32 (≈ 120 µM) | Active | Active | Active | 64 (≈ 239 µM) | Active | Active | Active | 32 (≈ 120 µM) | 32 (≈ 120 µM) | 32 (≈ 120 µM) | Active | 128 (≈ 478 µM) | 256 (≈ 956 µM)
CCCCCCN1C(=O)COc2cc(F)ccc21 | 32 (≈ 127 µM) | Active | Active | Active | 128 (≈ 509 µM) | Active | Active | Active | 16 (≈ 63.7 µM) | 16 (≈ 63.7 µM) | 32 (≈ 127 µM) | Active | 128 (≈ 509 µM) | 128 (≈ 509 µM)
O=C1COc2cc(Br)ccc2N1CC1CCCO1 (centres undefined) | 32 (≈ 103 µM) | Active | Active | Active | 64 (≈ 205 µM) | Active | Active | Active | 32 (≈ 103 µM) | 32 (≈ 103 µM) | 32 (≈ 103 µM) | Active | 128 (≈ 410 µM) | –
O=C1COc2cc(Br)ccc2N1C1CCCCC1 | 32 (≈ 103 µM) | Active | Active | Active | 16 (≈ 51.6 µM) | Active | Active | Active | 32 (≈ 103 µM) | 16 (≈ 51.6 µM) | 32 (≈ 103 µM) | Active | 256 (≈ 825 µM) | –
CC1(C)S[C@@H]2[C@H](NC(=O)[C@H](N)c3ccccc3)C(=O)N2[C@H]1C(=O)O [AMPICILLIN] | 1 (≈ 2.86 µM) | Active | Active | Active | 128 (≈ 366 µM) | Active | Active | Active | 16 (≈ 45.8 µM) | 16 (≈ 45.8 µM) | 2 (≈ 5.72 µM) | Active | – | –
CCCCCCN1C(=O)COc2cc(Cl)ccc21 | 32 (≈ 120 µM) | Active | Active | Active | 32 (≈ 120 µM) | Active | Active | Active | 16 (≈ 59.8 µM) | 32 (≈ 120 µM) | 32 (≈ 120 µM) | Active | 512 (≈ 1910 µM) | –
Clc1ccccc1C(c1ccccc1)(c1ccccc1)n1ccnc1 [CLOTRIMAZOLE] | 512 (≈ 1480 µM) | Active | Active | Active | 512 (≈ 1480 µM) | Active | Active | Active | 512 (≈ 1480 µM) | 512 (≈ 1480 µM) | 512 (≈ 1480 µM) | Active | 2 (≈ 5.8 µM) | 2 (≈ 5.8 µM)
O=C1COc2c(Cl)cccc2N1C1CCCCC1 | 32 (≈ 120 µM) | Active | Active | Active | 16 (≈ 60.2 µM) | Active | Active | Active | 32 (≈ 120 µM) | 32 (≈ 120 µM) | 64 (≈ 241 µM) | Active | 128 (≈ 482 µM) | 256 (≈ 963 µM)
O=C1COc2ccc(Cl)cc2N1Cc1ccccc1 | 32 (≈ 117 µM) | Active | Active | Active | 128 (≈ 468 µM) | Active | Active | Active | 32 (≈ 117 µM) | 128 (≈ 468 µM) | 64 (≈ 234 µM) | Active | 64 (≈ 234 µM) | 32 (≈ 117 µM)

Source: ChEMBL document CHEMBL3046260, “Synthesis of benzo[b][1,4]oxazin-3(4H)-ones via smiles rearrangement for antimicrobial activity” (2011)
